Test: gradient 5% acetonitrile 3 min, to 50% in 2 min, to 85% in 15 min, held 3 min, 100 µL/min
Conditions: column: Zorbax Extend-C18 2.1 x 50 mm; eluents: water / acetonitrile, 0.1% formic acid
Outline: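 Values are retention times taken from adduct peaks that software picked and an analyst inspected. The pure standards were run as mixtures of ~100 molecules on HPLC linked to a quadrupole time-of-flight mass spectrometer, in positive and negative ionization mode. A Zorbax Extend-C18 column (2.1 × 50 mm, 1.8 μm) was used at 100 μL/min with water and acetonitrile, each including 0.1% formic acid.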

SMILES | RP-LC retention time
CC(C)CN1CCN(C(=O)c2ccc3[nH]c4c(c3c2)CN(C(=O)C2CCC2)CC4)CC1 | 621 s
COc1cc(OC)cc(C(=O)N2CCN(c3nnc4c(Cl)cccn34)CC2)c1 | 603 s
CC(C)n1c(=O)oc2cc(-c3noc(-c4ccccc4F)n3)ccc21 | 1160 s
CCOc1nn(CC)cc1-c1nnc(SCC(=O)N2CCCc3ccccc32)n1CC | 734 s
COc1ccc(-c2ccc(=O)n(Cc3nc(-c4ccc(C)cc4)no3)n2)cc1OC | 925 s
CCOC(=O)c1c(C)[nH]c(C(=O)N2CCC(CC(=O)N3CCN(C4CCCCC4)CC3)CC2)c1C | 624 s
O=C(c1ccncc1)N1CCCCC1c1nc(-c2ccncc2)no1 (stereo not drawn) | 689 s
Cn1c(NC(=O)c2ccc(N3C(=O)CCC3=O)cc2)cc(=O)n(C)c1=O | 565 s
O=C(NCc1ccco1)C1CCN(c2ncccc2-c2nc(-c3ccc(Cl)cc3)no2)CC1 | 1090 s
COc1ccccc1NC(=O)c1[nH]c2cc(C)sc2c1CN1CCOCC1 | 693 s
CC(C)NC(=O)c1ccc(OCC2CCN(C(=O)c3ccccc3F)CC2)cc1 | 822 s
CCC1Oc2ccc(S(=O)(=O)N3CCC(C(=O)Nc4ccccc4C)CC3)cc2NC1=O (stereo not drawn) | 814 s
CCN(C(=O)c1ccccc1)c1nc(-c2ccccc2)cs1 | 1230 s
Cc1cc2nc(C(=O)Nc3cccc(C)c3C)cc(C)n2n1 | 1020 s
CCN(C(=O)c1ccco1)c1nc(-c2ccc(Br)cc2)cs1 | 1320 s
CCc1nc(NCc2ccc(OC)c(OC)c2)ncc1C(=O)O | 682 s
Cc1ccc(NC(=O)N2CCC(N3CCN(Cc4ccccc4)C3=O)CC2)cc1Cl | 938 s
O=C(O)c1cccc(Nc2c(-c3ccc([N+](=O)[O-])cc3)nc3cnccn23)c1 | 717 s
Cc1sc(NC(=O)c2ccccc2Br)nc1-c1ccc2c(c1)NC(=O)C(C)O2 (stereo not drawn) | 943 s
COc1ccc(NC(=O)Cn2cnc3c(sc4nc(-c5ccccc5)ccc43)c2=O)cc1OC | 899 s
CCCn1c(C)cnc1CC1CCN(S(=O)(=O)c2ccc3c(c2)OCCO3)CC1 | 560 s
COC(CNC(=O)C1CCN(C(=O)c2ncn3c2COC(c2ccc(F)cc2)C3)CC1)OC (stereo not drawn) | 674 s

SMILES | RP-LC retention time
CCNc1cc(C)nc(N2CCN(S(=O)(=O)c3ccc(-c4ccccc4)cc3)CC2)n1 | 829 s
c1cc(-c2noc(C3CC3)n2)ccc1OC1CNC1 | 616 s
CC(C)CNC(=O)CC1=C2CCCCC2NC1=O (stereo not drawn) | 644 s
COc1ccc(C2C(C(=O)NCc3ccccc3OC)c3cc(OC)c(OC)cc3C(=O)N2C)cc1 (stereo not drawn) | 802 s
COc1ccc(OCC(=O)N2CCC(C(=O)NCCc3csc(-c4cccs4)n3)CC2)cc1 | 777 s
NC(=O)COC1CCC12CCN(C(=O)C1CCCCCC1)CC2 (stereo not drawn) | 740 s
COc1cccc(CC(=O)N2CCC(c3cc(N)on3)CC2)c1 | 663 s
Cc1ccc(CNC(=O)N2CC(Oc3ccc(-c4nc(C)no4)cc3)C2)cc1 | 861 s
COc1ccc(CN2C=C(C(=O)OCc3noc(-c4ccccc4)n3)C(C)=NS2(=O)=O)cc1 | 1100 s
CC(C)n1c(=O)c(NCc2cccc(C(F)(F)F)c2)nc2ccncc21 | 725 s
Cc1cc(C)c(-c2noc(C)n2)c(NC(=O)c2cc(F)cc(F)c2)n1 | 787 s
Cn1nc(C(=O)N2CCCCC2)c2c1CCN(C(=O)CCC(=O)NCCCN1CCCC1)C2 | 579 s
CCc1nc(-c2ccc(C(=O)N3CCN(C(=O)c4ccco4)CC3)cc2)cs1 | 767 s
CCCn1c(=O)sc2cc(S(=O)(=O)N3CCC(C(=O)N4c5ccccc5CC4C)CC3)ccc21 (stereo not drawn) | 1080 s
Cc1nc(-c2csc(S(=O)(=O)N3CCC(C(=O)N(C)Cc4ccccc4)CC3)c2)no1 | 898 s
N#Cc1cccc(NC(=O)CN2CCc3[nH]c4c(F)c(Cl)ccc4c(=O)c3C2)c1 | 913 s
Cc1ncc2c(n1)CCN(S(=O)(=O)c1ccc(Br)s1)C2 | 778 s
Cc1ccnc(NC(=O)C2CCN(S(=O)(=O)c3ccc(-c4noc(C5CC5)n4)cc3)CC2)c1 | 794 s
O=C(c1cccs1)N1CCCc2cc(NS(=O)(=O)c3cc(F)ccc3F)ccc21 | 832 s
COc1ccc(-c2nc3ccc(C)cn3c2Nc2ccccc2C)cc1 | 761 s
CCC1CCCCN1CCNC(=O)CCc1cc2ccc(C)cc2[nH]c1=O (stereo not drawn) | 621 s
CN1C(=O)C(C)(C)c2cc(S(=O)(=O)N(C)CC(=O)N3CCN(c4ccccn4)CC3)ccc21 | 610 s

SMILES | RP-LC retention time
CS(=O)(=O)N1CCC(C(=O)N2CCC(COCc3ccccc3)CC2)CC1 | 772 s
O=C(c1nnc(-c2ccc(S(=O)(=O)N3CCCC3)cc2)o1)N1CCCC1 | 764 s
CC(C(=O)NCCCN(C)Cc1ccccc1)n1c(=O)c(C(F)(F)F)nc2ccccc21 (stereo not drawn) | 725 s
O=C(c1cccc(C(F)(F)F)c1)N1CCN(c2cc(-n3ccnc3)ncn2)CC1 | 606 s
CN(C)S(=O)(=O)c1ccc2c(c1)Cc1cc(S(=O)(=O)N(C)C)ccc1-2 | 820 s
CC(C)(C)NCC(O)c1ccccc1Cl (stereo not drawn) | 650 s
Cc1ccc(-c2cn(CC(=O)N3CCN(c4ccc(C)cc4)CC3)c(=O)o2)cc1 | 975 s
COc1cccc(NC(=O)Cn2nc(N3CCSCC3)c3ccccc3c2=O)c1 | 908 s
CC1CCN(c2cc(-n3cnc(C(=O)N4CCOCC4)c3)ncn2)CC1 | 750 s
O=C(c1cn(-c2cc(N3CCSCC3)ncn2)cn1)N1CCc2ccccc21 | 952 s
Cc1cc(NC(=O)Cn2cnc3nc4c(cc3c2=O)CCCC4)ccc1Br | 851 s
O=C(NC1CCCCC1)N1CCN(c2ccc3nnc(C4CC4)n3n2)CC1 | 645 s
CCOC(=O)c1c(C)oc2nc(C)nc(N3CCN(Cc4ccccc4)CC3)c12 | 583 s
Cc1ccccc1CNC(=O)C1CCN(S(=O)(=O)c2cc(C(=O)N(C)C)cs2)CC1 | 762 s
Cn1cc(C2=C(c3ccc(Cl)cc3Cl)C(=O)NC2=O)c2ccccc21 | 1110 s
O=C1NC(=O)[C@@H](c2cn3c4c(cccc24)CCC3)[C@@H]1c1c[nH]c2ccccc12 | 947 s
COc1ccc(-c2nc3ccccn3c2NC(=O)c2cccc([N+](=O)[O-])c2)cc1 | 659 s
COc1ccc(-c2nc(CC3CCNC3)no2)cc1 (stereo not drawn) | 607 s
COCC(=O)N1CCC2(CC1)Nc1ccc(C)c(C)c1-n1cccc12 | 823 s
CCCOc1nc2ccccc2nc1N1CCCC(C(=O)Nc2ccc(NC(C)=O)cc2)C1 (stereo not drawn) | 968 s
Cc1cc2[nH]c(=O)[nH]c2cc1S(=O)(=O)Nc1cccc(Cl)c1 | 690 s
CCc1cccc(C)c1NC(=O)Cn1cnc2nc(N3CCC(C(=O)NC4CC4)CC3)sc2c1=O | 686 s

SMILES | RP-LC retention time
CCCCC(=O)NC1(C(F)(F)F)C(=O)N(CCc2ccccc2)C(C)=C1C(C)=O (stereo not drawn) | 980 s
CC(C)S(=O)(=O)c1cc2c(cc1NC(=O)c1ccccc1Cl)n(C)c(=O)n2C | 824 s
COc1ccc(OC)c(NC(=O)N2CCC(n3cnc4cccnc43)CC2)c1 | 649 s
O=C(Nc1ccc(N2CCOCC2)cc1)C1CCCN(c2ccnc(-c3ccc(F)cc3)n2)C1 (stereo not drawn) | 649 s
CCn1cnc2ccc(-c3noc(COc4ccc(Cl)cc4)n3)cc21 | 815 s
CCC(c1cccs1)N1C(=O)[C@H]2CN(S(=O)(=O)c3cccnc3)C[C@H]2C1=O (stereo partly drawn) | 824 s
CCOc1ccc(NC(=O)Cn2c(=O)cc(-c3nc(CC)no3)c3ccccc32)cc1 | 936 s
CC(NC(=O)c1ccc(C#N)cc1)C(=O)N1CCCc2ccccc21 (stereo not drawn) | 818 s
Cc1ccccc1-c1noc(C2CC(=O)N(c3ccc4c(c3)OCO4)C2)n1 (stereo not drawn) | 718 s
CC(C)(C)c1cc(C(=O)NC2CCCC2)nc2ccnn12 | 1150 s
Cc1cccc(-c2nc(NCc3ccncc3)ncc2C(=O)O)c1 | 587 s
Cc1ccc(-c2noc(-c3ccc(=O)n(CC(=O)OC(C)C)n3)n2)cc1 | 1050 s
COc1ccccc1NC(=O)N1CCCC1c1nc(-c2cccc(C)c2)no1 (stereo not drawn) | 1080 s
COc1ccc(C(=O)N2CCN3CCS(=O)(=O)N(C4CC4)C(=O)C3C2)c(OC)n1 (stereo not drawn) | 732 s
COc1ccc(C2C(C(=O)NCC3CCCO3)c3cc(OC)c(OC)cc3C(=O)N2C)cc1OC (stereo not drawn) | 652 s
CCC(CC)NC(=O)C1CCN(c2cn[nH]c(=O)c2)C1 (stereo not drawn) | 612 s
CC(=O)N1C[C@@H]2CCCN3CCC[C@@H]([C@H]23)[C@H]1CCCC(=O)NCCC(C)C | 583 s
O=C(CCCc1ccccc1)N1CCN2CCS(=O)(=O)N(C3CC3)C(=O)C2C1 (stereo not drawn) | 852 s
O=C1NC2(CCN(C(=O)c3ccc(F)cc3)CC2)N=C1c1cccc(F)c1 | 635 s
COc1cccc(Nc2c(-c3ccc(N(C)C)cc3)nc3cnccn23)c1 | 771 s
CCOCCOC1CCN(S(=O)(=O)c2ccc(OC)cc2)CC1 | 831 s
O=C(Nc1ccc2c(c1)CN(S(=O)(=O)c1cccnc1)CCO2)C1CC1 | 712 s

Source: the METLIN SMRT retention time set (Domingo-Almenara et al. 2019)
